Assay results published in patent US6300501A, “Histidine-(N-benzyl glycinamide) inhibitors of protein farnesyl transferase” (Warner-Lambert Company, priority 1998, dated 2001).
Like-named read-outs stand apart in the source and are kept apart here.

Key:
[1] = test system: ras farnesylation in ras-transformed cells; test: Gel shift assay; format: cell-based; details: ras-transformed cells, 18-hour incubation; read-out: Gel Shift (μM) MED (minimal effective dose to observe inhibition of ras farnesylation)
Description: Twenty-four hours after planting 2×10^6 ras-transformed cells per treatment condition, the farnesylation inhibitor is added at varying concentrations. Following an 18-hour incubation period, cells are lysed in phosphate-buffered saline containing 1% Triton X-100, 0.5% sodium deoxycholate, and 0.1% SDS (sodium dodecyl sulfate), pH 7.4 in the presence of several protease inhibitors (PMSF (phenylmethylsulfonylfluoride), antipain, leupeptin, pepstatin A, and aprotinin all at 1 μg/mL). Ras protein is immunoprecipitated from the supernatants by the addition of 3 μg v-H-ras Ab-2 (Y13-259 antibody from Oncogene Science). After overnight immunoprecipitation, 30 μL of a 50% protein G-Sepharose slurry (Pharmacia) is added followed by 45-minute incubation. Pellets are resuspended in 2× tris-glycine loading buffer (Novex) containing 5% β-mercaptoethanol and then denatured by 5 minutes boiling prior to electrophoresis on 14% Tris-glycine SDS gels. Using Western transfer techniques, proteins are transferred to nitrocellulose membranes followed by blocking in blocking buffer. Upon overnight incubation with primary antibody (pan-ras Ab-2 from Oncogene Science), an antimouse HRP (horse radish peroxidase) conjugate secondary antibody (Amersham) is employed for detection of the ras protein. Blots are developed using ECL(enhanced chemiluminescence) techniques (Amersham).

[2] = test system: H61 cells: NIH transformed 3T3 H-ras cells; test: Clonogenic assay (6 well plates, soft agar); format: cell-based; details: colonies counted after Day 13, read-out: Clonogenic Assay IC50
Description: Clonoaenic Assay (6 well lates)
Sometime previous to setting up an actual test:
1. Make up 1.5% Bacto Agar in Milli-Q water and autoclave.
2. Make up 500 mL 2× DMEM-HG without phenol red by combining the following:
1 bottle DMEM base powder (Sigma D-5030)
Adjust pH to 7.1 with HCL; filter sterilize.
1. Set up makeshift water bath (beaker of water with thermometer, on hot plate) in the hood. Keep water temperature between 37° C. to 43° C.
2. […] 1.5% Bacto Agar for approximately 2 minutes on high, or until completely melted. Then let it cool somewhat before using it. (You can keep it from resolidifying by setting the bottle on the hot plate.) […]
3. Bottom Layer (0.6% agar) Top Layer (0.3% agar)
20% calf serum 20% calf serum
40% Bacto Agar (1.5%) 20% Bacto Agar (1.5%)
Depending on the volume of each layer needed, use either 50 mL conical tubes or 200 mL turnip tubes which can be floated in the "water bath".
4. Add 1 mL of bottom layer agar/medium to each well: deliver 1 mL warm agar/medium to a well; then using the tip of the pipet, spread the agar/medium around to completely cover the bottom. Repeat with next well.
5. Allow the plates to set at room temperature for about 5 minutes until the bottom layer solidifies.
6. Label sterile Falcon 2054 (12×75 mm) tubes and add appropriate volume of drug solutions into them.
7. Aliquot 4 AL of DMSO or drug solution per 1 mL of agar/medium to appropriate tubes; then add the agar/medium/cells to each tube. Always add 1 mL more than will actually be needed. Mix up and down in the pipet (gently); then deliver 1 mL to the center of each well. The upper layer is less viscous, so it will generally spread out over the bottom layer unaided. If necessary, rotate the plane of the plate gently to spread the top layer evenly over the bottom layer.
8. Let plates set for 5 or 10 minutes at room temperature to solidify, then put into 5% CO2, 37° C. incubator.
9. On Day 13, add 0.5 mL of INT (tetrazolium 1 mg/mL in Milli-Q H2 O, filter sterilized) and return plates to incubator.

[3] = biological target: T1, SF9 affinity purified rat farnesyl protein transferase (Rattus norvegicus, UniProt Q02293+Q04631); test: PFT inhibitory activity (radiolabeled farnesyl pyrophosphate, streptavidin bead assay); format: biochemical
T1 construct: made in house; host or cells: Sf9 insect cells (baculovirus system inferred from b7)
T1 sequence (Q02293 whole entry, one chain of several): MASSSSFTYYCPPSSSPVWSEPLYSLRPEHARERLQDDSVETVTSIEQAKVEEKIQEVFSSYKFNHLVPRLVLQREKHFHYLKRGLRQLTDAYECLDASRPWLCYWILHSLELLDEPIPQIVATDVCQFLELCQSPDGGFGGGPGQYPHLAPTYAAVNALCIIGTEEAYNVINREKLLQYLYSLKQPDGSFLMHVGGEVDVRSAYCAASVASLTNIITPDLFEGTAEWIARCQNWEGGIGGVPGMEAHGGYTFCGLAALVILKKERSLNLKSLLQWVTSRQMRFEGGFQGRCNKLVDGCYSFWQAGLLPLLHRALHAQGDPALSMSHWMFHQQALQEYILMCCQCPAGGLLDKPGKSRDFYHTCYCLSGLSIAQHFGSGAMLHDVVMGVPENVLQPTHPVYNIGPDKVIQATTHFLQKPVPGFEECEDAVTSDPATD
Description: The protein:farnesyl transferase (PFT) or farnesyl protein transferase (FPT) inhibitory activity of compounds of the present invention were assayed in HEPES buffer (pH 7.4) containing 5 mM potassium phosphate and 20 μM ZnCl2. The solution also contained 5 mM DTT (dithiothreitol), 5 mM MgCl2, and 0.1% PEG 8000. Assays were performed in 96 well plates (Wallec) and employed solutions composed of varying concentrations of a compound of the present invention in 100% DMSO (dimethylsulfoxide). Upon addition of both substrates, radiolabeled farnesyl pyrophosphate ([1^3 H], specific activity 15-30 Ci/mmol, final concentration 134 nM) and (biotinyl)-Ahe-Thr-Lys-Cys-Val-Ile-Met ([3aS[3a alpha, 4 beta, 6a alpha]-hexahydro-2-oxo-1H-thieno[3,4-d]imidazole-5-pentanoic acid]-[7-aminoheptanoic acid]-Thr-Lys-Cys-Val-Ile-Met) (Ahe is 7-aminoheptanoic acid, Thr is threonine, Lys is lysine, Cys is cysteine, Val is valine, Ile is isoleucine and Met is methionine) (final concentration 0.2 μM), the enzyme reaction was started by addition of SF9 affinity purified rat farnesyl protein transferase. After incubation at 30° C. for 30 minutes, the reaction was terminated by diluting the reaction 2.5-fold with a stop buffer containing 1.5 M magnesium acetate, 0.2 M H3 PO4, 0.5% BSA (bovine serum albumin), and strepavidin beads (Amersham) at a concentration of 1.3 mg/mL. After allowing the plate to settle for 30 minutes at room temperature, radioactivity was quantitated on a microBeta counter (Model 1450, Wallec). The assay was also carried out without 5 mM potassium phosphate.

[4] = HEPES buffer pH 7.4, without 5 mM potassium phosphate, read-out: IC50 (μM) Hepes
[5] = HEPES buffer pH 7.4 containing 5 mM potassium phosphate, read-out: IC50 (μM) 5 mM K3 PO4 -2

| SMILES | IC50 [3, 4] | IC50 [3, 5] | minimal effective concentration [1] | IC50 ([2]; 312 h) | IC50 [2] |
| --- | --- | --- | --- | --- | --- |
| O=C(CN(Cc1ccc(OCc2ccccc2)cc1)C(=O)[C@H](Cc1c[nH]cn1)NC(=O)OCc1ccccc1)NCC(c1ccccc1)c1ccccn1 (stereo partly drawn) [Example 12, (S)-[1-{(4-Benzyloxy-benzyl)-[(2-phenyl-2-pyridin-2-yl-ethylcarbamoyl)-methyl]-carbamoyl}-2-(1H-imidazole-4-yl)-ethyl]-carbamic Acid Benzyl Ester] | 1.1 µM | 0.062 µM | 0.2 µM | > 1 µM |  |
| O=C(CN(Cc1ccc(OCc2ccccc2)cc1)C(=O)[C@H](Cc1cnc[nH]1)NC(=O)OCc1ccccc1)NCC(O)c1ccccc1 (stereo partly drawn) [Example 14, (S)-[1-{(4-Benzyloxy-benzyl)-[(2-hydroxy-2-phenyl-ethylcarbamoyl)-methyl]-carbamoyl}-2-(3H-imidazole-4-yl)-ethyl]-carbamic Acid Benzyl Ester] | 1.6 µM | 0.066 µM | 0.05 µM | > 1 µM |  |
| CCC(CNC(=O)CN(Cc1ccc(OCc2ccccc2)cc1)C(=O)[C@H](Cc1c[nH]cn1)NC(=O)OCc1ccccc1)c1ccccc1 (stereo partly drawn) [Example 16, (S)-[1-{(4-Benzyloxy-benzyl)-[(2-phenyl-butylcarbamoyl)-methyl]-carbamoyl}-2-(1H-imidazole-4-yl)-ethyl]-carbamic Acid Benzyl Ester] | 0.29 µM | 0.007 µM | 0.01 to 0.05 µM | 0.4 µM |  |
| CC(CNC(=O)CN(Cc1ccc(OCc2ccccc2)cc1)C(=O)[C@H](Cc1c[nH]cn1)NC(=O)CCc1ccccc1)c1ccccc1 (stereo partly drawn) [Example 17, (S)-N-(4-Benzyloxy-benzyl)-3-(1H-imidazole-4-yl)-2-(3-phenyl-proponylamino)-N-[(2-phenyl-propylcarbamoyl)-methyl]-propionamide] | 2.8 µM | 0.086 µM | 0.2 µM |  | > 1 µM |
| CC(CNC(=O)CN(Cc1ccc(OCc2ccccc2)cc1)C(=O)[C@H](Cc1cnc[nH]1)NC(=O)OCc1ccccc1)c1ccccc1N (some centres unmarked) [Example 21] | 0.16 µM | 0.008 µM | 0.05 µM |  | 0.3 µM |
| CC(C)(CNC(=O)CN(Cc1ccc(F)cc1)C(=O)[C@H](Cc1c[nH]cn1)NC(=O)OCc1ccccc1)c1ccccc1 [Example 22, (S)-[1-{(4-Fluoro-benzyl)-[(2-methyl-2-phenyl-propylcarbamoyl)-methyl]-carbamoyl}-2-(1H-imidazole-4-yl)-ethyl]-carbamic Acid Benzyl Ester] | 1.2 µM | 0.016 µM | 0.2 µM | > 1 µM |  |
| O=C(CN(Cc1ccc(OCc2ccccc2)cc1)C(=O)[C@H](Cc1c[nH]cn1)NC(=O)OCc1ccccc1)NCC(c1ccccc1)c1ccccc1Cl (stereo partly drawn) [Example 24, (S)-[1-((4-Benzyloxy-benzyl)-{[2-(2-chloro-phenyl)-2-phenyl-ethylcarbamoyl]-methyl}-carbamoyl)-2-(1H-imidazole-4-yl)-ethyl]-carbamic Acid Benzyl Ester] | 0.2 µM | 0.014 µM | 0.2 µM | 0.82 µM |  |
| CCC(CC)(CNC(=O)CN(Cc1ccc(OCc2ccccc2)cc1)C(=O)[C@H](Cc1cnc[nH]1)NC(=O)OCc1ccccc1)c1ccccc1 [Example 25, (S)-[1-{(4-Benzyloxy-benzyl)-[(2-ethyl-2-phenyl-butylcarbamoyl)-methyl]-carbamoyl}-2-(3H-imidazole-4-yl)-ethyl]-carbamic Acid Benzyl Ester] | 0.93 µM | 0.032 µM | 0.2 µM | 0.89 µM |  |
| CCC(CNC(=O)CN(Cc1ccc(OCc2ccccc2)cc1)C(=O)[C@H](Cc1c[nH]cn1)NC(=O)NCc1ccccc1)c1ccccc1 (stereo partly drawn) [Example 27, (S)-N-(4-Benzyloxy-benzyl)-2-(3-benzyl-ureido)-3-(1H-imidazole-4-yl)-N-[(2-phenyl-butylcarbamoyl)-methyl]-propionamide] | 0.12 µM | 0.014 µM | 0.2 µM | > 1 µM |  |

The next lines start with results.

| IC50 [3, 4] | IC50 [3, 5] | SMILES | minimal effective concentration [1] | IC50 ([2]; 312 h) | IC50 [2] |
| --- | --- | --- | --- | --- | --- |
| 1.4 µM | 0.022 µM | CC(CNC(=O)CN(Cc1ccc(Cl)cc1)C(=O)[C@H](Cc1c[nH]cn1)NC(=O)OCc1ccccc1)c1ccccc1 (stereo partly drawn) [Example 13, (S)-[1-{(4-Chloro-benzyl)-[(2-phenyl-propylcarbamoyl)-methyl]-carbamoyl}-2-(1H-imidazole-4-yl)-ethyl]-carbamic Acid Benzyl Ester] | 0.2 µM | > 1 µM |  |
| 2.8 µM | 0.061 µM | CC(CNC(=O)CN(Cc1ccc(F)cc1)C(=O)[C@H](Cc1c[nH]cn1)NC(=O)OCc1ccccc1)c1ccccc1 (stereo partly drawn) [Example 18, (S)-[1-{(4-Fluoro-benzyl)-[(2-phenyl-propylcarbamoyl)-methyl]-carbamoyl}-2-(1H-imidazole-4-yl)-ethyl]-carbamic Acid Benzyl Ester] | 0.2 µM | > 1 µM |  |
| 1.26 µM | 0.015 µM | Cc1ccc(CN(CC(=O)NCC(C)c2ccccc2)C(=O)[C@H](Cc2c[nH]cn2)NC(=O)OCc2ccccc2)cc1 (stereo partly drawn) [Example 19, (S)-(2-(1H-Imidazole-4-yl)-1-{(4-methyl-benzyl)-[(2-phenyl-propylcarbamoyl)-methyl]-carbamoyl}-ethyl)-carbamic Acid Benzyl Ester] | 0.05 µM | 0.66 µM |  |
| 1.5 µM | 0.017 µM | COc1ccc(CN(CC(=O)NCC(C)c2ccccc2)C(=O)[C@H](Cc2c[nH]cn2)NC(=O)OCc2ccccc2)cc1 (stereo partly drawn) [Example 20, (S)-(2-(1H-Imidazole-4-yl)-1-{(4-methoxy-benzyl)-[(2-phenyl-propylcarbamoyl)-methyl]-carbamoyl}-ethyl)-carbamic Acid Benzyl Ester] | 0.05 µM | 0.46 µM |  |
| 1.6 µM | 0.022 µM | CC(CNC(=O)CN(Cc1ccccc1)C(=O)[C@H](Cc1c[nH]cn1)NC(=O)OCc1ccccc1)c1ccccc1 (stereo partly drawn) [Example 23, (S)-[1-{Benzyl-[(2-phenyl-propylcarbamoyl)-methyl]-carbamoyl}-2-(1H-imidazole-4-yl)-ethyl]-carbamic Acid Benzyl Ester] | 0.2 µM | > 1 µM |  |
